{"source": "patent US20130065868A1", "about": "“ANXIOYTIC MARCGRAVIACEAE COMPOSITIONS CONTAINING BETULINIC ACID, BETULINIC ACID DERIVATIVES, AND METHODS” (UNIVERSITY OF OTTAWA, priority 2002, published 2013)", "key": {"Sprague-Dawley rats": {"tested_on": "Sprague-Dawley rats", "assay": "Elevated plus-maze (EPM) test in rats", "assay_type": "in vivo, rat", "conditions": "1 mg/kg in peanut oil orally (gavage), 45-60 min after treatment, vs peanut oil (FIG. 3)", "method": "The majority of tests described in the following examples were conducted on adult; male Sprague-Dawley rats (typically weighing ˜300-450 gm) were obtained from Charles River Canada, St. Constant, Quebec. They were individually housed in standard clear Plexiglas cages (24×30×18 cm) and maintained on a 12 hr light/dark cycle (7:00 A.M.-7:00 P.M. light phase) in a temperature and humidity controlled room. Unless indicated otherwise, animals had free access to water and maintained on a restricted diet of 5 pellets a day of Purina Lab Chow. All experimental procedures complied with the guidelines of the Canadian Council on Animal Care and were approved by the Research Ethics Committee at the University of Ottawa. […]\nThe EPM constitutes of a plus-shaped maze with two enclosed arms (or alleys; 50×10×40 cm) and two open arms (or planks; 50×10 cm), with a 10×10 cm central zone. […] To avoid distractions, the EPM was surrounded by black curtain and the subjects were monitored remotely, using a closed circuit camera mounted above the set-up.\nThe rats were randomly assigned to each of the drug conditions. […] Behaviours scored included time spent in the open arms of the maze, time spent in the closed arms of the maze, number of entries into the open-arms and number of entries into the closed arm of the maze. […]"}, "CD-1 strain of mice": {"tested_on": "CD-1 strain of mice", "assay": "Elevated plus maze test in CD-1 mice", "assay_type": "in vivo, mouse", "conditions": "for entries into the open (anxiogenic) arm of the elevated plus maze: 45-60 min, vs peanut oil control", "method": "Previous experiments were all conducted in experimental rats. Here we tested the effect of betulinic acid on CD-1 strain of mice. Mice received 0.25 or 2.5 mg/kg of betulinic acid, or peanut oil only (control), intra peritoneally (“i.p.”), and were tested 45-60 minutes later in the elevated plus maze test."}, "adrenergic β": {"tested_on": "adrenergic β", "assay": "MDS Panlabs screen: adrenergic β", "assay_type": "binding", "conditions": "Catecholamines", "method": "(§1) Tests were conducted by MDS Panlabs to determine whether any of the classical neurotransmitter systems or the peptidergic systems thought to play a role in anxiety are affected by betulinic acid."}, "5-HT1": {"tested_on": "5-HT1", "assay": "MDS Panlabs screen: 5-HT1", "assay_type": "binding", "conditions": "Serotonin (5-HT)", "method": "as §1"}}}
{"smiles": "C=C(C)[C@@H]1CC[C@]2(C(=O)O)CC[C@]3(C)C(CC[C@@H]4[C@@]5(C)CC[C@H](O)C(C)(C)[C@@H]5CC[C@]43C)[C@@H]12", "note": "(stereo partly shown) [betulinic acid, Betulinic acid]", "values": [{"measurement": "time spent on the open arms of the plus-maze", "setting": "Sprague-Dawley rats", "value": "spent significantly more time on the open arms of the plus-maze"}, {"measurement": "entries into the open (anxiogenic) arm of the elevated plus maze", "setting": "CD-1 strain of mice; CD-1 mice, 0.25 mg/kg i.p.", "value": "more often than controls"}, {"measurement": "entries into the open (anxiogenic) arm of the elevated plus maze", "setting": "CD-1 strain of mice; CD-1 mice, 2.5 mg/kg i.p.", "value": "more often than controls"}, {"measurement": "proportion of time spent on the open arm of the maze", "setting": "CD-1 strain of mice; CD-1 mice, 0.25 or 2.5 mg/kg i.p. (dose not singled out in the sentence)", "value": "increased significantly"}, {"measurement": "maximally effective dose", "setting": "CD-1 strain of mice; mice, i.p., elevated plus maze, higher dose did not increase the effect further", "value": 0.25, "unit": "mg/kg"}, {"measurement": "affected by betulinic acid", "setting": "adrenergic β", "value": "none of the following neurotransmitters or proteins were affected"}, {"measurement": "affected by betulinic acid", "setting": "5-HT1", "value": "none of the following neurotransmitters or proteins were affected"}]}
